Measured values reported in PubChem BioAssay (NCI).
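Values below derive from 48-hour exposures of cells grown in 96-well plates, with endpoints linearly interpolated between the two concentrations bracketing the appropriate inhibition level. GI50 = concentration required for 50% inhibition of growth. TGI is the concentration that stops growth completely.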

What was measured:
Test in all cases: NCI anticancer screen, dose series, 48 h
EKVX NSCLC = system: EKVX NSCLC
PC-3 prostate = system: PC-3 prostate
MCF7 breast = system: MCF7 breast
HS 578T breast = system: HS 578T breast
OVCAR-4 ovarian = system: OVCAR-4 ovarian
NCI-H460 lung = system: NCI-H460 lung
TK-10 renal = system: TK-10 renal
M14 melanoma = system: M14 melanoma
SNB-75 CNS = system: SNB-75 CNS
SW-620 colon = system: SW-620 colon
SK-MEL-28 melanoma = system: SK-MEL-28 melanoma
SK-MEL-5 melanoma = system: SK-MEL-5 melanoma
DU-145 prostate = system: DU-145 prostate
NCI-H522 lung = system: NCI-H522 lung
786-0 renal = system: 786-0 renal
UACC-62 melanoma = system: UACC-62 melanoma
MDA-MB-435 = system: MDA-MB-435
HCC-2998 colon = system: HCC-2998 colon
HOP-92 NSCLC = system: HOP-92 NSCLC
HCT-116 colon = system: HCT-116 colon
MDA-N = system: MDA-N
T-47D breast = system: T-47D breast
NCI-H23 lung = system: NCI-H23 lung
LOX IMVI melanoma = system: LOX IMVI melanoma
UO-31 renal = system: UO-31 renal
CCRF-CEM leukemia = system: CCRF-CEM leukemia
A549 NSCLC = system: A549 NSCLC
SN12C renal = system: SN12C renal
OVCAR-3 ovarian = system: OVCAR-3 ovarian
SF-539 CNS = system: SF-539 CNS
SF-295 CNS = system: SF-295 CNS
OVCAR-8 ovarian = system: OVCAR-8 ovarian
SK-MEL-2 melanoma = system: SK-MEL-2 melanoma
NCI/ADR-RES ovarian = system: NCI/ADR-RES ovarian
SF-268 CNS = system: SF-268 CNS
A498 renal = system: A498 renal
ACHN renal = system: ACHN renal
HOP-62 NSCLC = system: HOP-62 NSCLC
COLO 205 colon = system: COLO 205 colon
KM12 colon = system: KM12 colon
U251 CNS = system: U251 CNS
SNB-19 CNS = system: SNB-19 CNS
UACC-257 melanoma = system: UACC-257 melanoma
HCT-15 colon = system: HCT-15 colon
SK-OV-3 ovarian = system: SK-OV-3 ovarian
RXF 393 renal = system: RXF 393 renal
SR leukemia = system: SR leukemia
IGROV1 ovarian = system: IGROV1 ovarian
MDA-MB-231 breast = system: MDA-MB-231 breast
HL-60(TB) leukemia = system: HL-60(TB) leukemia
HT29 colon = system: HT29 colon
CAKI-1 renal = system: CAKI-1 renal
MALME-3M melanoma = system: MALME-3M melanoma
OVCAR-5 ovarian = system: OVCAR-5 ovarian
MOLT-4 leukemia = system: MOLT-4 leukemia
K-562 leukemia = system: K-562 leukemia
RPMI-8226 leukemia = system: RPMI-8226 leukemia

SMILES: CCCn1c2c(c3ccccc3c1=O)C(=O)c1cc3c(cc1-2)OCO3
- GI50 (EKVX NSCLC): 91.2 µM
- TGI (EKVX NSCLC): > 100 µM
- GI50 (PC-3 prostate): 71.1 µM
- TGI (PC-3 prostate): > 100 µM
- GI50 (MCF7 breast): 9.39 µM
- TGI (MCF7 breast): > 100 µM
- GI50 (HS 578T breast): > 100 µM
- TGI (HS 578T breast): > 100 µM
- GI50 (OVCAR-4 ovarian): > 100 µM
- TGI (OVCAR-4 ovarian): > 100 µM
- GI50 (NCI-H460 lung): 26.8 µM
- TGI (NCI-H460 lung): > 100 µM
- GI50 (TK-10 renal): 86.9 µM
- TGI (TK-10 renal): > 100 µM
- GI50 (M14 melanoma): > 100 µM
- TGI (M14 melanoma): > 100 µM
- GI50 (SNB-75 CNS): > 100 µM
- TGI (SNB-75 CNS): > 100 µM
- GI50 (SW-620 colon): 83.2 µM
- TGI (SW-620 colon): > 100 µM
- GI50 (SK-MEL-28 melanoma): > 100 µM
- TGI (SK-MEL-28 melanoma): > 100 µM
- GI50 (SK-MEL-5 melanoma): > 100 µM
- TGI (SK-MEL-5 melanoma): > 100 µM
- GI50 (DU-145 prostate): > 100 µM
- TGI (DU-145 prostate): > 100 µM
- GI50 (NCI-H522 lung): 60.1 µM
- TGI (NCI-H522 lung): > 100 µM
- GI50 (786-0 renal): 77.2 µM
- TGI (786-0 renal): > 100 µM
- GI50 (UACC-62 melanoma): > 100 µM
- TGI (UACC-62 melanoma): > 100 µM
- GI50 (MDA-MB-435): > 100 µM
- TGI (MDA-MB-435): > 100 µM
- GI50 (HCC-2998 colon): 16.9 µM
- TGI (HCC-2998 colon): 99.6 µM
- GI50 (HOP-92 NSCLC): 0.159 µM
- TGI (HOP-92 NSCLC): 0.458 µM
- GI50 (HCT-116 colon): 30.5 µM
- TGI (HCT-116 colon): > 100 µM
- GI50 (MDA-N): > 100 µM
- TGI (MDA-N): > 100 µM
- GI50 (T-47D breast): > 100 µM
- TGI (T-47D breast): > 100 µM
- GI50 (NCI-H23 lung): > 100 µM
- TGI (NCI-H23 lung): > 100 µM
- GI50 (LOX IMVI melanoma): > 100 µM
- TGI (LOX IMVI melanoma): > 100 µM
- GI50 (UO-31 renal): > 100 µM
- TGI (UO-31 renal): > 100 µM
- GI50 (CCRF-CEM leukemia): > 100 µM
- TGI (CCRF-CEM leukemia): > 100 µM
- GI50 (A549 NSCLC): > 100 µM
- TGI (A549 NSCLC): > 100 µM
- GI50 (SN12C renal): > 100 µM
- TGI (SN12C renal): > 100 µM
- GI50 (OVCAR-3 ovarian): 21 µM
- TGI (OVCAR-3 ovarian): > 100 µM
- GI50 (SF-539 CNS): > 100 µM
- TGI (SF-539 CNS): > 100 µM
- GI50 (SF-295 CNS): 44.8 µM
- TGI (SF-295 CNS): > 100 µM
- GI50 (OVCAR-8 ovarian): > 100 µM
- TGI (OVCAR-8 ovarian): > 100 µM
- GI50 (SK-MEL-2 melanoma): > 100 µM
- TGI (SK-MEL-2 melanoma): > 100 µM
- GI50 (NCI/ADR-RES ovarian): 76.9 µM
- TGI (NCI/ADR-RES ovarian): > 100 µM
- GI50 (SF-268 CNS): > 100 µM
- TGI (SF-268 CNS): > 100 µM
- GI50 (A498 renal): > 100 µM
- TGI (A498 renal): > 100 µM
- GI50 (ACHN renal): > 100 µM
- TGI (ACHN renal): > 100 µM
- GI50 (HOP-62 NSCLC): > 100 µM
- TGI (HOP-62 NSCLC): > 100 µM
- GI50 (COLO 205 colon): > 100 µM
- TGI (COLO 205 colon): > 100 µM
- GI50 (KM12 colon): 31.5 µM
- TGI (KM12 colon): > 100 µM
- GI50 (U251 CNS): > 100 µM
- TGI (U251 CNS): > 100 µM
- GI50 (SNB-19 CNS): > 100 µM
- TGI (SNB-19 CNS): > 100 µM
- GI50 (UACC-257 melanoma): > 100 µM
- TGI (UACC-257 melanoma): > 100 µM
- GI50 (HCT-15 colon): > 100 µM
- TGI (HCT-15 colon): > 100 µM
- GI50 (SK-OV-3 ovarian): > 100 µM
- TGI (SK-OV-3 ovarian): > 100 µM
- GI50 (RXF 393 renal): > 100 µM
- TGI (RXF 393 renal): > 100 µM
- GI50 (SR leukemia): 6.1 µM
- TGI (SR leukemia): > 100 µM
- GI50 (IGROV1 ovarian): 44.4 µM
- TGI (IGROV1 ovarian): > 100 µM
- GI50 (MDA-MB-231 breast): > 100 µM
- TGI (MDA-MB-231 breast): > 100 µM
- GI50 (HL-60(TB) leukemia): > 100 µM
- TGI (HL-60(TB) leukemia): > 100 µM
- GI50 (HT29 colon): > 100 µM
- TGI (HT29 colon): > 100 µM
- GI50 (CAKI-1 renal): 97.3 µM
- TGI (CAKI-1 renal): > 100 µM
- GI50 (MALME-3M melanoma): > 100 µM
- TGI (MALME-3M melanoma): > 100 µM
- GI50 (OVCAR-5 ovarian): > 100 µM
- TGI (OVCAR-5 ovarian): > 100 µM

SMILES: O=CCOCc1cc2c(cc1Br)OCO2
- TGI (MOLT-4 leukemia): > 100 µM
- TGI (EKVX NSCLC): > 100 µM
- TGI (PC-3 prostate): 59.6 µM
- TGI (MCF7 breast): 42.9 µM
- TGI (HS 578T breast): 44.7 µM
- TGI (OVCAR-4 ovarian): 45.8 µM
- TGI (NCI-H460 lung): > 100 µM
- TGI (TK-10 renal): > 100 µM
- TGI (M14 melanoma): 46.7 µM
- TGI (SNB-75 CNS): > 100 µM
- TGI (SW-620 colon): 50.3 µM
- TGI (SK-MEL-28 melanoma): > 100 µM
- TGI (SK-MEL-5 melanoma): 36.1 µM
- TGI (DU-145 prostate): > 100 µM
- TGI (NCI-H522 lung): 33.3 µM
- TGI (786-0 renal): 36.7 µM
- TGI (UACC-62 melanoma): > 100 µM
- TGI (MDA-MB-435): > 100 µM
- TGI (HCC-2998 colon): > 100 µM
- TGI (HOP-92 NSCLC): > 100 µM
- TGI (HCT-116 colon): 45 µM
- TGI (MDA-N): > 100 µM
- TGI (T-47D breast): 61.6 µM
- TGI (NCI-H23 lung): 28.7 µM
- TGI (LOX IMVI melanoma): 47.1 µM
- TGI (UO-31 renal): 42.9 µM
- TGI (CCRF-CEM leukemia): 47.7 µM
- TGI (A549 NSCLC): > 100 µM
- TGI (SN12C renal): > 100 µM
- TGI (OVCAR-3 ovarian): 35.7 µM
- TGI (SF-539 CNS): 50.2 µM
- TGI (SF-295 CNS): > 100 µM
- TGI (OVCAR-8 ovarian): 52.5 µM
- TGI (NCI/ADR-RES ovarian): 40.4 µM
- TGI (SF-268 CNS): 47.8 µM
- TGI (A498 renal): > 100 µM
- TGI (ACHN renal): 55.1 µM
- TGI (HOP-62 NSCLC): > 100 µM
- TGI (COLO 205 colon): > 100 µM
- TGI (KM12 colon): > 100 µM
- TGI (U251 CNS): 90.5 µM
- TGI (K-562 leukemia): > 100 µM
- TGI (UACC-257 melanoma): > 100 µM
- TGI (HCT-15 colon): 46.1 µM
- TGI (SK-OV-3 ovarian): > 100 µM
- TGI (RXF 393 renal): > 100 µM
- TGI (SR leukemia): 68.1 µM
- TGI (RPMI-8226 leukemia): > 100 µM
- TGI (IGROV1 ovarian): > 100 µM
- TGI (MDA-MB-231 breast): 44.4 µM
- TGI (HL-60(TB) leukemia): 48.8 µM
- TGI (HT29 colon): 38.6 µM
- TGI (CAKI-1 renal): 42.7 µM
- TGI (OVCAR-5 ovarian): > 100 µM
